Test results: patent US20250268903A1, “RXFP1 AGONISTS” (BRISTOL-MYERS SQUIBB COMPANY, priority 2021, published 2025)

Molecular target: T1, human RXFP1 (Homo sapiens, UniProt Q9HBX9)
T1 construct: expressed in transfected cells
T1 sequence (Q9HBX9 1-757): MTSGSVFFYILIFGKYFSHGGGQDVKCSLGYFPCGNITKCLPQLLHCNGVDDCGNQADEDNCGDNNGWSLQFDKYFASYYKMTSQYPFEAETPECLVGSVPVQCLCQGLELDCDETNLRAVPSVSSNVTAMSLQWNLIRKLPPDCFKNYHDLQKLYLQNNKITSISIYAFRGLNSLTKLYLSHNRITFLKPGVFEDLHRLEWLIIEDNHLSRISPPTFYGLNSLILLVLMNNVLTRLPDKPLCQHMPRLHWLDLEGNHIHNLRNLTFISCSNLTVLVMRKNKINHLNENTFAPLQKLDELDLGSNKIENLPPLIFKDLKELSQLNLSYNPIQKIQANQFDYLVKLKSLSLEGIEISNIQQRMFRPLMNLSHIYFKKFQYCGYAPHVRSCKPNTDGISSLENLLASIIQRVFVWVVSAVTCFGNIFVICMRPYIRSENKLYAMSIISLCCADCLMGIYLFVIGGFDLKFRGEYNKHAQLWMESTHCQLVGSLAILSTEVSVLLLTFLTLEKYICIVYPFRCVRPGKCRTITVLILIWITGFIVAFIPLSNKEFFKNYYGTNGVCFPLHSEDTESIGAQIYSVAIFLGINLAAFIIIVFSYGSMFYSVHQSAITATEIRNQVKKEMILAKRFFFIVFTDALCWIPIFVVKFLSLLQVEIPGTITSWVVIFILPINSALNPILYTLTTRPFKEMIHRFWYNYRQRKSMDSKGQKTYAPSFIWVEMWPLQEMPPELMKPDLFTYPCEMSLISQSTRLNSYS
Assay: hRXFP1 HEK293 cAMP assay (HTRF)
Assay type: cell-based
Details: HEK293 cells stably expressing human RXFP1, 30 min at room temperature
Summary of the method: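 Intracellular cAMP was read by HTRF, with potency fitted to a 4-parameter logistic curve. Compound exposure (0.010 nM–50 μM final, 2% DMSO) lasted 30 min at room temperature. Cells were hRXFP1-HEK293 at 1500 per well in IBMX-containing (0.5 mM) HEPES-buffered HBSS.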

| Molecule | EC50 [nM] |
| --- | --- |
| COc1c(F)cc(C(=O)NCC2(S(C)(=O)=O)CC2)cc1C(=O)N[C@H]1[C@@H](C(=O)N[C@H](C)C2(C)CC2)[C@H]2CC[C@@H]1/C2=C\c1cnc(C(F)(F)F)s1 [Example 373, 5-fluoro-N1-[(1-methanesulfonyl-cyclopropyl)methyl]-4-methoxy-N3-[(1R,2R,3S,4R,7Z)-3-{[(1R)-1-(1-methylcyclopropyl)ethyl]carbamoyl}-7-{[2-(trifluoromethyl)-1,3-thiazol-5-yl]methylidene}bicyclo[2.2.1]heptan-2-yl]benzene-1,3-dicarboxamide] | 3.6 |
| COc1c(F)cc(C(=O)NCC2(S(C)(=O)=O)CC2)cc1C(=O)N[C@H]1[C@@H](C(=O)Nc2ccc(F)c(C(F)(F)F)c2)[C@H]2CC[C@@H]1/C2=C\C1CC(F)(F)C1 [Example 374, N3-[(1R,2R,3S,4R,7Z)-7-[(3,3-difluorocyclobutyl)methylidene]-3-{[4-fluoro-3-(trifluoromethyl)phenyl]carbamoyl}bicyclo[2.2.1]heptan-2-yl]-5-fluoro-N1-[(1-methanesulfonyl-cyclopropyl)methyl]-4-methoxybenzene-1,3-dicarboxamide] | 6.9 |
| COc1cc(F)c(O[C@H]2CC[C@](C)(C(=O)O)CC2)cc1C(=O)N[C@@H]1C2CCC(/C2=C/C2CC2)[C@@H]1C(=O)Nc1ccc(F)c(C(F)(F)F)c1 (stereo partly drawn) [Example 375, (1R,4r)-4-(5-(((1R,2R,3S,4R,Z)-7-(cyclopropyl-methylene)-3-((4-fluoro-3-(trifluoromethyl)phenyl)carbamoyl)bicyclo[2.2.1]heptan-2-yl)carbamoyl)-2-fluoro-4-methoxyphenoxy)-1-methylcyclohexane-1-carboxylic acid] | 1.3 |
| COc1cc(F)c(O[C@H]2CC[C@H](C(=O)O)CC2)cc1C(=O)N[C@@H]1C2CCC(/C2=C/C2CC2)[C@@H]1C(=O)Nc1ccc(F)c(C(F)(F)F)c1 (stereo partly drawn) [Example 376, (1R,4r)-4-(5-(((1R,2R,3S,4R,Z)-7-(cyclopropyl-methylene)-3-((4-fluoro-3-(trifluoromethyl)phenyl)carbamoyl)bicyclo[2.2.1]heptan-2-yl)carbamoyl)-2-fluoro-4-methoxyphenoxy) cyclohexane-1-carboxylic acid] | 120 |
| COc1cc(F)c(O[C@H]2CC[C@](C)(C(=O)O)CC2)cc1C(=O)N[C@H]1[C@@H](C(=O)NCC2(C)CCC2)[C@H]2CC[C@@H]1/C2=C\C1CC1 [Example 377, (1R,4r)-4-(5-(((1R,2R,3S,4R,Z)-7-(cyclopropyl-methylene)-3-(((1-methylcyclobutyl)methyl)carbamoyl)bicyclo[2.2.1]heptan-2-yl)carbamoyl)-2-fluoro-4-methoxyphenoxy)-1-methylcyclohexane-1-carboxylic acid] | 59 |
| (1R,4R,7Z)-7- (cyclopentyl- methylidene)- N-[4-fluoro-3- (trifluoromethyl) phenyl]-3-[5-(3- hydroxy-3- methylbutyl)-2- methoxybenzamido] bicyclo[2.2.1] heptane-2- carboxamide [Example 268] | 29.6 |
| (1R,4R,7Z)-7- (cyclopentyl- methylidene)- N-[4-fluoro- 3-(trifluoromethyl) phenyl]-3-[5-(3- hydroxy-3- methylbutyl)-2- methoxybenzamido] bicyclo[2.2.1]heptane- 2-carboxamide [Example 260] | 324 |
| (1R,4R,7Z)-7-(2- cyclobutylethylidene)- N-[4-fluoro-3- (trifluoromethyl) phenyl]-3-[5-(3- hydroxy-3- methylbutyl)-2- methoxybenzamido] bicyclo[2.2.1] heptane- 2-carboxamide [Example 265] | 66.2 |
| (1R,4R,7Z)-7-(2- cyclobutylethylidene)- N-[4-fluoro-3- (trifluoromethyl) phenyl]-3-[5-(3- hydroxy-3- methylbutyl)-2- methoxybenzamido] bicyclo[2.2.1]heptane- 2-carboxamide [Example 262] | 197 |
| (1R,4R,7Z)-7-(2- cyclobutylethylidene)- N-[4-fluoro-3- (trifluoromethyl) phenyl]-3-[5-(3- hydroxypropyl)-2- methoxybenzamido] bicyclo[2.2.1]heptane- 2-carboxamide [Example 261] | 147 |
| (1R,4R,7Z)-N-14- fluoro-3- (trifluoromethyl) phenyl]-3-[5-(3- hydroxy-3- methylbutyl)-2- methoxybenzamido 1-7-[(oxan-3- yl)methylidene] bicyclo[2.2.1] heptane- 2-carboxamide [Example 266] | 186 |
| (1R,4R,7Z)-N-[4- fluoro-3- (trifluoromethyl) phenyl]-3-[5-(3- hydroxy-3- methylbutyl)-2- methoxybenzamido 1-7-[(oxolan-3- yl)methylidene] bicyclo[2.2.1] heptane- 2-carboxamide [Example 267] | 246 |
| (1R,4R,7Z)-N-[4- fluoro-3- (trifluoromethyl) phenyl]-3-[5-(3- hydroxypropyl)-2- methoxybenzamido]- 7-[(oxan-3- yl)methylidene] bicyclo[2.2.1]heptane- 2-carboxamide [Example 263] | 318 |
| (1R,4R,7Z)-N-[4- fluoro-3- (trifluoromethyl) phenyl]-3-[5-(3- hydroxypropyl)-2- methoxybenzamido]- 7-[(oxolan-3- yl)methylidene] bicyclo[2.2.1] heptane- 2-carboxamide [Example 264] | 459 |
| (2S,3R,7Z)-7- butylidene-N-[4- fluoro-3- (trifluoromethyl)phe- nyl]-3-[5-(3- hydroxy-3- methylbutyl)-2- methoxybenzamido] bicyclo[2.2.1]heptane- 2-carboxamide [Example 88] | 28 |
| (7Z)-7-(4,4- dimethylpentylidene)- N-[4-fluoro-3- (trifluoromethyl)phe- nyl]-3-[5-(3- hydroxypropyl)-2- methoxybenzamido] bicyclo[2.2.1]heptane- 2-carboxamide [Example 164] | 67 |

Tested on: not given
Assay: not given
Details: intravenous (IV) formulation; cited from earlier work

| Molecule | first-phase pharmacokinetic half-life [min] |
| --- | --- |
| Serelaxin: "an intravenous (IV) formulation of the recombinant human relaxin peptide with a relatively short first-phase pharmacokinetic half-life of 0.09 hours" | 5.4 |
